Data from patent US20140357713A1, “ANTIMICROBIAL COMPOUNDS AND METHODS OF USE” (NexMed Holdings, Inc., priority 2012, published 2014).
Where a name gives a salt, the structure may show the parent alone. Read-outs that look alike come from different tables or passages of the source.

What was measured:
[1] = Solubility (Sol., Table 1); assay type: physicochemical
[2] = pH (Table 1); assay type: physicochemical
[3] = test system: Escherichia coli (ATCC 25922); assay: Minimum inhibitory concentration (MIC) assay, Example 33; assay type: cell-based; settings: Escherichia coli
Description: (§1) Thirty compounds were tested for antimicrobial activity using standard procedures and standard strains for both the minimum inhibitory concentration (MIC) assay and a time kill study. Both the MIC assay and the time kill study were performed according to Clinical and Laboratory Standards Institute (CLSI) guidelines. Three bacteria strains, Escherichia coli (ATCC 25922), Pseudomonas aeruginosa (ATCC 27853), Staphulococcus aureus (ATCC 29213), and two fungus strains, Candida albicans (ATCC 90029) and Aspergillus niger (CMCC 98003), were used in the experiments.
(§2) Preparation of cultures. Before the experiment, two days for the bacteria strains and five days for fungus strains, an aliquot was removed from the cultures frozen at −80° C. Medium was added to the surface of an appropriate agar plate and streaked with the aliquot. The plate was incubated for 20 to 24 hrs at 35±2° C. for bacteria or for 5 days at 26-30° C. in incubator for fungus. From the resulting growth on each plate, one isolated colony of similar morphology was selected and re-streaked onto a fresh agar plate using a sterile disposable loop. The plate was incubated 20 to 24 hrs at 35±2° C. or for 5 days at 26-30° C. in an incubator.
(§3) Preparation of Assay Plates with Medium and Drugs. On the day of the assay, CAMHB medium or RPMI 1640 medium was removed from 4′C storage and allowed to reach room temperature. Ninety microliters (μL) of room temperature CAMHB or RPMI 1640 (supplemented with the appropriate concentration of DMSO, if required) were added to rows B-G of each 96-well microtiter plate. Using a pipette, duplicate 180 μL aliquots of each drug stock solution were added to column 1 (e.g. A1 and B1 or C1 and D1 or E1 and F1 or G1 and H1). Using a multichannel pipette or the Provision 2000 liquid handler, serial 2-fold dilutions (90 μL) were performed in each row across the plate to row G. Eighty μL of compounds dilutions were transferred to a 96-deep well plate. Medium, 1,520 μL of CAMHB or RPMI 1640, was added to each well. The contents of the wells were mixed thoroughly. A 50 μL aliquot of each of the resulting mixtures was transferred to a 96-well assay plate.
(§4) For bacteria, a sterile inoculating loop was used to transfer growth from an agar plate culture into about 5 mL of test medium. Using a turbidity meter, this inoculum was adjusted so that its density (600 nm) was equivalent to a 0.5 McFarland barium sulfate standard (0.08-0.13). The resulting suspension was diluted 1:100 into medium to obtain two times test inoculums.
(§5) For Aspergillus niger, sporulating colonies were covered with RPMI 1640, and a suspension was prepared by gently probing the colonies with the tip of a transfer pipette. The suspension was transferred to a sterile tube and mixed with a vortex mixer for 15 seconds. The densities at 530 nm were adjusted to 0.09-0.13 for each sample. The resulting suspension was diluted 1:50 with the medium to obtain two times test inoculums. Fifty μL/well of this inoculum suspension was added to wells of drug-containing plates (1:2 dilution). Plates were incubated at 35° C. for the appropriate times. The MIC was read and recorded according to CLSI guidelines.
(§6) The MIC values for thirty compounds against Escherichia coli, Pseudomonas aeruginosa, Staphulococcus aureus, Candida albicans, and Aspergillus niger were recorded and are presented in Table 3 and Table 4.

[4] = test system: Pseudomonas aeruginosa (ATCC 27853); assay: as above; assay type: cell-based; settings: Pseudomonas aeruginosa
Description: as §1, §2, §3, §4, §5, §6

[5] = test system: Staphylococcus aureus (ATCC 29213); assay: Time kill study, Example 33 (0 to 5 min); assay type: cell-based; settings: 1×MIC
Description: as §1
(§7) The viable counts in Log10 CFU/mL at each time point were recorded.
(§8) Time kill studies. Strain suspensions were prepared as described above for the MIC test, and strain suspensions and compound solutions were mixed in the same volume. Samples were removed at specified times including 0 min, 30 sec, 1 min and 5 mins, were diluted in the test medium and streaked on agar. Colonies were counted after 24 to 48 hrs of incubation. […]

[6] = test system: Escherichia coli (ATCC 25922); assay: Time kill study, Example 33 (0 to 5 min); assay type: cell-based; settings: 1×MIC
Description: as §1, §7, §8

[7] = test system: Pseudomonas aeruginosa (ATCC 27853); assay: Time kill study, Example 33 (0 to 5 min); assay type: cell-based; settings: 1×MIC
Description: as §1, §7, §8

[8] = test system: Candida albicans (ATCC 90029); assay: Minimum inhibitory concentration (MIC) assay, Example 33; assay type: cell-based; settings: Candida albicans
Description: as §1, §2, §3
For Candida albicans, a sterile inoculating loop was used to transfer growth from an agar plate culture into a tube with RPMI1640 medium. This inoculum was adjusted so that its density at 530 nm was in the ranges from 0.08 to 0.13. The resulting suspension was diluted 1:50 and further diluted 1:20 with the medium to obtain two times test inoculums.
as §5, §6

[9] = test system: Aspergillus niger (CMCC 98003); assay: as above; assay type: cell-based; settings: for MIC: Aspergillus niger
Description: as §1, §2, §3, §5, §6

[10] = test system: Staphulococcus aureus (ATCC 29213); assay: as above; assay type: cell-based, Staphylococcus aureus; settings: Staphylococcus aureus
Description: as §1, §2, §3, §4, §5, §6

**Q.** With `CCCCCCCCCCCCCOC(=O)C(C)N(C)C` (stereo not shown) [Nex-69, Tridecyl 2-(dimethylamino)propanoate hydrochloride] as the molecule, how does the Sol. [1] read?
**A.** 51%

**Q.** And the pH [2]?
**A.** 1.64

**Q.** What about the MIC ([3]; ATCC25922, Table 19 summary of Example 33 and Example 35) of the same molecule?
**A.** 3130 µg/mL

**Q.** And the MIC ([3]; ATCC25922, read-out: MIC E. coli, n = 1)?
**A.** 3130 µg/mL

**Q.** And the MIC ([3]; ATCC25922, read-out: MIC E. coli, n = 2)?
**A.** 3130 µg/mL

**Q.** What about the MIC ([4]; ATCC27853, Table 19 summary) of the same molecule?
**A.** 6250 µg/mL

**Q.** And the MIC ([4]; ATCC27853, read-out: MIC P. aeruginosa, n = 1)?
**A.** 6250 µg/mL

**Q.** What about the MIC ([4]; ATCC27853, read-out: MIC P. aeruginosa, n = 2) of the same molecule?
**A.** 6250 µg/mL

**Q.** What about the “Viable counts, Staphylococcus aureus time kill study” value ([5]; 0.5 min) of the same molecule?
**A.** 6.39 Log10 CFU/mL

**Q.** What about the “Viable counts, Staphylococcus aureus time kill study” value ([5]; 1 min) of the same molecule?
**A.** 6.31 Log10 CFU/mL

**Q.** And the “Viable counts, Staphylococcus aureus time kill study” value ([5]; 5 min)?
**A.** 6.38 Log10 CFU/mL

**Q.** What about the “Viable counts, Staphylococcus aureus time kill study” value ([5]; time 0) of the same molecule?
**A.** 6.41 Log10 CFU/mL

**Q.** What about the “Viable counts, Escherichia coli time kill study” value ([6]; 0.5 min) of the same molecule?
**A.** 5.72 Log10 CFU/mL

**Q.** And the “Viable counts, Escherichia coli time kill study” value ([6]; 1 min)?
**A.** 5.54 Log10 CFU/mL

**Q.** What about the “Viable counts, Escherichia coli time kill study” value ([6]; 5 min) of the same molecule?
**A.** <3.52 Log10 CFU/mL

**Q.** And the “Viable counts, Escherichia coli time kill study” value ([6]; time 0)?
**A.** 6.25 Log10 CFU/mL

**Q.** And the “Viable counts, Pseudomonas aeruginosa time kill study” value ([7]; 0.5 min)?
**A.** 5.75 Log10 CFU/mL

**Q.** And the “Viable counts, Pseudomonas aeruginosa time kill study” value ([7]; 1 min)?
**A.** 5.74 Log10 CFU/mL

**Q.** What about the “Viable counts, Pseudomonas aeruginosa time kill study” value ([7]; 5 min) of the same molecule?
**A.** 5.21 Log10 CFU/mL

**Q.** What about the “Viable counts, Pseudomonas aeruginosa time kill study” value ([7]; time 0) of the same molecule?
**A.** 5.65 Log10 CFU/mL

**Q.** What about the MIC ([8]; ATCC90029, Table 19 summary) of the same molecule?
**A.** 12500 µg/mL

**Q.** What about the MIC ([8]; ATCC90029, read-out: MIC Candida albicans, n = 1) of the same molecule?
**A.** 12500 µg/mL

**Q.** And the MIC ([8]; ATCC90029, read-out: MIC Candida albicans, n = 2)?
**A.** 12500 µg/mL

**Q.** And the MIC ([9]; CMCC98003)?
**A.** > 12500 µg/mL

**Q.** And the MIC ([9]; CMCC98003, read-out: MIC Aspergillus niger)?
**A.** > 12500 µg/mL

**Q.** And the “MIC Aspergillus niger” value ([9]; n = 2)?
**A.** >12500 µg/mL

**Q.** What about the MIC ([10]; ATCC29213, Table 19 summary) of the same molecule?
**A.** 3130 µg/mL

**Q.** And the MIC ([10]; ATCC29213, read-out: MIC S. aureus, n = 1)?
**A.** 3130 µg/mL

**Q.** What about the MIC ([10]; ATCC29213, read-out: MIC S. aureus, n = 2) of the same molecule?
**A.** 3130 µg/mL

**Q.** Which Sol. [1] does the source give for `CCCCCCCCCCCCOC(=O)C(C(C)O)N(C)C` (stereo not shown) [Nex-51, Dodecyl 2-(dimethylamino)-3-hydroxybutanoate hydrochloride] here?
**A.** 98%

**Q.** What about the pH [2] of the same molecule?
**A.** 0.56
